These results are taken from publication PMC6222902, “DPP-IV Inhibitory Potentials of Flavonol Glycosides Isolated from the Seeds of Lens culinaris: In Vitro and Molecular Docking Analyses” (Molecules : A Journal of Synthetic Chemistry and Natural …, 2018).

For test [1], the target named is T1, human recombinant DPP-IV (Homo sapiens, UniProt P27487).
T1 construct: purchased Cayman Chemical
In words: DPP-IV inhibitor screening assay kit (Cayman), fluorogenic substrate Gly-Pro-AMC. The following applies: mean ± SD of three independent experiments. Format: biochemical. The method, then:
To the best of our knowledge, no prior studies examined the in vitro DPP-IV-inhibitory effects of 1–3, although the protein-ligand complex for 3 was examined via molecular docking analysis, using Discovery Studio 3.0 and Meta-Pocket (http://projects.biotec.tu-dresden.de/metapocket/).
DPP-IV activity was analyzed using a DPP-IV inhibitor screening assay kit (Cayman Chemical, Ann Arbor, MI, USA), which provided a fluorescence-based method for screening DPP-IV inhibitors. The assay used the fluorogenic substrate, Gly-Pro-Aminomethylcoumarine (AMC), to measure DPP-IV activity. Cleavage of the peptide bond by DPP released the free AMC group, resulting in fluorescence that could be analyzed using an excitation wavelength of 350–360 nm and an emission wavelength of 450–465 nm.
The tested compounds were initially dissolved in DMSO to produce 50 mM stock solution, and subsequently diluted to the required concentrations using DMSO, and then they were added to a 96-well plate in final volume of 10 μL and a final concentration of 50 μM. The assay procedure is described briefly according to the manufacturer’s protocols as follows: Diluted assay buffer (30 μL) and diluted enzyme solution (10 μL) were added to the 96-well plate containing 10 μL of solvent (blank) or solvent-dissolved test compounds. The reaction was initiated by adding 50 μL of a diluted substrate solution, and the plate was incubated for 30 min at 37 °C. After incubation, fluorescence with an excitation wavelength of 350 nm and an emission wavelength of 450 nm was monitored using a plate reader (TECAN, Männedorf, Switzerland). The percent inhibition was expressed as ([DPP-IV level of vehicle–treated control–DPP-IV level of test samples]/DPP-IV level of vehicle-treated control) × 100.

Test [2] relates to DPP-IV. To be noted: DPP-IV Glo Protease Assay kit (Promega); cited from earlier work.
The subject of test [3] is DPP-IV. The arrangement: method as in PMID 22410395. The following applies: cited from earlier work.

T1 sequence (P27487 whole entry): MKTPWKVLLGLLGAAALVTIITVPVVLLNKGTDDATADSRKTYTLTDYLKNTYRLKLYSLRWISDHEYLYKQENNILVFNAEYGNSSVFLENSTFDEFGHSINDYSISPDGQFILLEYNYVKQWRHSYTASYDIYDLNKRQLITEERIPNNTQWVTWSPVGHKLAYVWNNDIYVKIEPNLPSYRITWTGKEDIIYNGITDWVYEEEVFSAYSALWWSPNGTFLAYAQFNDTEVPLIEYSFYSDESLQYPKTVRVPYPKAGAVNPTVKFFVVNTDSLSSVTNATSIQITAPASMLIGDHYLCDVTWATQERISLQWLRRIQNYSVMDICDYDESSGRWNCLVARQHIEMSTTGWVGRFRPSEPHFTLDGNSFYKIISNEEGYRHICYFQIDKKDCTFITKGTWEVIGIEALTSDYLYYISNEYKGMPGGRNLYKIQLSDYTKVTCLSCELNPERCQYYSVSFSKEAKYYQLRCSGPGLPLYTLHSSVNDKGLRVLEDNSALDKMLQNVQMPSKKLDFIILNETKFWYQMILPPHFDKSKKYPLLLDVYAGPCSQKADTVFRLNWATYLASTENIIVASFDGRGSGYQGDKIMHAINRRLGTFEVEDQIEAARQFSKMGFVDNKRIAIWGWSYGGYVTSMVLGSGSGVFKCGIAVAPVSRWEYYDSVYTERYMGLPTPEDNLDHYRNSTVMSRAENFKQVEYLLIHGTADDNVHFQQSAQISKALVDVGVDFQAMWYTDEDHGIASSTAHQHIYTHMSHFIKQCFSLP

As a reminder, the IC50 is the midpoint of a concentration-inhibition curve. As for `CC1OC(Oc2cc(O)c3c(=O)c(OC4OC(CO)C(O)C(O)C4OC4OC(CO)C(O)C(O)C4O)c(-c4ccc(O)cc4)oc3c2)C(O)C(O)C1O` (stereo not drawn) [Compound 1, kaempferol-3-O-β-gulcopyranosyl-(1→2)-β-galactopyranosyl-7-O-α-rhamnopyranoside], the 50% inhibitory concentration (IC50) in test [1] is 27.9 ± 1.29 µM.
Same read-out and setting: for `CC1OC(OCC2OC(Oc3c(-c4ccc(O)cc4)oc4cc(OC5OC(C)C(O)C(O)C5O)cc(O)c4c3=O)C(OC3OC(CO)C(O)C(O)C3O)C(O)C2O)C(O)C(O)C1O` (stereo not drawn) [Compound 2, kaempferol-3-O-β-gulcopyranosyl-(1→2)-[α-rhamnopyranosyl(1→6)]-β-galactopyranosyl-7-O-α-rhamnopyranoside] the value was 36.5 ± 0.78 µM; for `CC1OC(OCC2OC(Oc3c(-c4ccc(O)cc4)oc4cc(OC5OC(C)C(O)C(O)C5O)cc(O)c4c3=O)C(O)C(O)C2O)C(O)C(O)C1O` (stereo not drawn) [Compound 3, kaempferol-3-O-α-rhamnosyl(1→6)-O-β-galactopyranoside-7-O-α-rhamnopyranoside], 37 ± 1.4 µM.
Regarding `O=c1c(O)c(-c2ccc(O)cc2)oc2cc(O)cc(O)c12` [Compound 4, kaempferol], the half-inhibitory concentration (IC50) in test [2] is 0.49 ± 0.02 µM; in test [1] it was 51.7 ± 4.83 µM.
For `O=c1c(O[C@@H]2O[C@H](CO)[C@@H](O)[C@H](O)[C@H]2O)c(-c2ccc(O)c(O)c2)oc2cc(O)cc(O)c12` [isoquercitrin], the “in vivo bioactivities as a DPP-IV inhibitor” value in test [3] is listed as “strong in vivo bioactivities”.
As for `C[C@@H]1O[C@@H](O[C@H]2[C@H](Oc3cc(O)c4c(c3)O[C@H](c3ccc(O)cc3)CC4=O)O[C@H](CO)[C@@H](O)[C@@H]2O)[C@H](O)[C@H](O)[C@H]1O` [naringin], in test [3], the “in vivo bioactivities as a DPP-IV inhibitor” value was “strong in vivo bioactivities”.
